From ChEMBL document CHEMBL3351515, “α-Hexylcinnamaldehyde inhibits the genotoxicity of environmental pollutants in the bacterial reverse mutation assay” (2014) come the findings set out here.

For experiment [1], the system named is Escherichia coli. Kind of experiment: Antimutagenic activity against methyl methansulfonate-induced revertant colonies in Escherichia coli WP2uvrA assessed as number of revertant colonies measured post-treatment at 90 uM (reference value: 726.7 +/- 12.7) in absence of mammalian S9 fraction. Format: functional.
Experiment [2] deals with Salmonella typhimurium. The experiment is described as follows: Antimutagenic activity against 2-aminoanthracene-induced revertant colonies in Salmonella typhimurium TA100 assessed as number of revertant colonies measured pretreatment at 18 uM (reference value: 481.3 +/- 5.3) in presence of mammalian S9 fraction. The class given is functional, Salmonella enterica subsp. enterica serovar Typhimurium.

For experiment [3], the system named is Escherichia coli. Kind of experiment: Antimutagenic activity against methyl methansulfonate-induced revertant colonies in Escherichia coli WP2uvrA assessed as number of revertant colonies measured pretreatment at 18 uM (reference value: 466.7 +/- 40.4) in absence of mammalian S9 fraction. Format: functional.
In experiment [4] the test system is Escherichia coli. Kind of experiment: Antimutagenic activity against 2-aminoanthracene-induced revertant colonies in Escherichia coli WP2uvrA assessed as number of revertant colonies measured pretreatment at 18 uM (reference value: 178.7 +/- 11.8) in presence of mammalian S9 fraction. Format: functional.
Experiment [5] has as its system Salmonella typhimurium. The experiment is described as follows: Antimutagenic activity against 2-aminoanthracene-induced revertant colonies in Salmonella typhimurium TA100 assessed as number of revertant colonies measured pretreatment at 180 uM (reference value: 481.3 +/- 5.3) in presence of mammalian S9 fraction. The class given is functional, Salmonella enterica subsp. enterica serovar Typhimurium.

The test system of experiment [6] is Salmonella typhimurium. The experiment is described as follows: Antimutagenic activity against sodium azide-induced revertant colonies in Salmonella typhimurium TA100 assessed as number of revertant colonies measured cotreatment at 180 uM (reference value: 1588 +/- 55.6) in absence of mammalian S9 fraction. Format: functional, Salmonella enterica subsp. enterica serovar Typhimurium.

Experiment [7] relates to Salmonella typhimurium. The experiment is described as follows: Antimutagenic activity against 4-nitroquinoline N-oxide-induced revertant colonies in Salmonella typhimurium TA98 assessed as inhibition of mutagenicity measured at 90 to 180 uM. The class given is functional, Salmonella enterica subsp. enterica serovar Typhimurium.
Experiment [8] relates to Salmonella typhimurium. Kind of experiment: Antimutagenic activity against 1-nitropyrene-induced revertant colonies in Salmonella typhimurium TA98 1,8 DNP assessed as inhibition of mutagenicity measured at 90 to 180 uM. Format: functional, Salmonella enterica subsp. enterica serovar Typhimurium.
In experiment [9] the test system is Escherichia coli. The experiment is described as follows: Antimutagenic activity against methyl methansulfonate-induced revertant colonies in Escherichia coli WP2uvrA assessed as number of revertant colonies measured post-treatment at 9 uM (reference value: 726.7 +/- 12.7) in absence of mammalian S9 fraction. The class given is functional.
The subject of experiment [10] is Escherichia coli. Kind of experiment: Antimutagenic activity against methyl methansulfonate-induced revertant colonies in Escherichia coli WP2uvrA assessed as number of revertant colonies measured cotreatment at 18 uM (reference value: 485.3 +/- 17.5) in absence of mammalian S9 fraction. The class given is functional.
Experiment [11] deals with Escherichia coli. Kind of experiment: Antimutagenic activity against methyl methansulfonate-induced revertant colonies in Escherichia coli WP2uvrA assessed as number of revertant colonies measured post-treatment at 180 uM (reference value: 726.7 +/- 12.7) in absence of mammalian S9 fraction. The class given is functional.
The subject of experiment [12] is Salmonella typhimurium. Kind of experiment: Antimutagenic activity against sodium azide-induced revertant colonies in Salmonella typhimurium TA100 assessed as number of revertant colonies measured pretreatment at 900 uM (reference value: 1968 +/- 46.9) in absence of mammalian S9 fraction. Format: functional, Salmonella enterica subsp. enterica serovar Typhimurium.

In experiment [13] the test system is Escherichia coli. Kind of experiment: Antimutagenic activity against methyl methansulfonate-induced revertant colonies in Escherichia coli WP2uvrA assessed as number of revertant colonies measured cotreatment at 90 uM (reference value: 485.3 +/- 17.5) in absence of mammalian S9 fraction. The class given is functional.
Experiment [14] relates to Salmonella typhimurium. The experiment is described as follows: Antimutagenic activity against 2-aminoanthracene-induced revertant colonies in Salmonella typhimurium TA100 assessed as number of revertant colonies measured cotreatment at 9 uM (reference value: 457.9 +/- 16.74) in presence of mammalian S9 fraction. The class given is functional, Salmonella enterica subsp. enterica serovar Typhimurium.

The subject of experiment [15] is Escherichia coli. The experiment is described as follows: Antimutagenic activity against 2-aminoanthracene-induced revertant colonies in Escherichia coli WP2uvrA assessed as number of revertant colonies measured pretreatment at 180 uM (reference value: 178.7 +/- 11.8) in presence of mammalian S9 fraction. Format: functional.
For experiment [16], the system named is Escherichia coli. Kind of experiment: Antimutagenic activity against methyl methansulfonate-induced revertant colonies in Escherichia coli WP2uvrA assessed as number of revertant colonies measured post-treatment at 18 uM (reference value: 726.7 +/- 12.7) in absence of mammalian S9 fraction. Format: functional.
For experiment [17], the system named is Salmonella typhimurium. Kind of experiment: Antimutagenic activity against 2-aminoanthracene-induced revertant colonies in Salmonella typhimurium TA100 assessed as number of revertant colonies measured post-treatment at 180 uM (reference value: 642.7 +/- 2.7) in presence of mammalian S9 fraction. Format: functional, Salmonella enterica subsp. enterica serovar Typhimurium.

On to `CCCCCC/C(C=O)=C\c1ccccc1`, for which the Activity with Escherichia coli [1] is 517.3; in the experiment on Salmonella typhimurium [2], 453.3; with Escherichia coli [3], 451.3; with Escherichia coli [4], 166.7; in the experiment with Salmonella typhimurium [5], 384; in the experiment on Salmonella typhimurium [6], 1457. Besides, the Activity in the experiment on Escherichia coli [9] is given as 528; in the experiment on Escherichia coli [10] it was 485.3; in the experiment on Escherichia coli [11], 488; with Salmonella typhimurium [12] it was 1652; in the experiment with Escherichia coli [13], 466.7; with Salmonella typhimurium [14] it was 449.3. Further, the Activity in the experiment with Escherichia coli [15] was 147; in the experiment with Escherichia coli [16] it was 524; in the experiment with Salmonella typhimurium [17], 520. Further, the “inhibition (INH)” value with Salmonella typhimurium [7] and in the experiment with Salmonella typhimurium [8] was 25% each time.
